Data taken from patent US20240336571A1, “NOVEL CYCLOPROPYL COMPOUNDS” (ICAGEN, LLC, priority 2021, published 2024).

Target: human Kv7.2 (Homo sapiens (Human), UniProt O43526)
Assay: SyncroPatch 384 electrophysiology, activation of Kv7.2 in CHO cells
Format: cell-based
Settings: for EC50: CHO cells stably expressing human Kv7.2, potassium current at -90 mV repolarizing step, in presence of zinc pyrithione; for Emax: CHO, Kv7.2 activation max %, relative to 30 μM ML-213 max activation
Method: The potency of Kv7 potentiators was determined using the SyncroPatch 384 (Nanion) high throughput electrophysiology platform.
CHO cells stably expressing either human Kv7.2, Kv7.4 or Kv7.5/7.3 under a constitutive CMV promoter were used for these studies. Cells were maintained in F12 Hams+1 mM L-glutamine (Hyclone) supplemented with 10% FBS (Sigma), 0.3×NEAA (Non-essential Gamino-acids) and 400 ug/ml G418 at 37° C. in 5% CO2. Cells were cultured in T-225 flasks (Nunc) for 2-3 days to reach 85-95% confluence prior to electrophysiological recording.
Earle's balanced salt solution (in mM): 135 NaCl, 5.4 KCl, 5 Glucose, 2 CaCl2, 1 MgCl2, 5 HEPES, pH 7.4. Seal enhancer solution (in mM): 90 NaCl, 3 KCl, 35 CaCl2, 10 MgCl2, 10 HEPES, pH 7.4. Extracellular recording solution (in mM): 71 NaCl, 70 NMDG, 13 KCl, 5 Glucose, 2 CaCl2, 1 MgCl2, 10 HEPES, pH 7.4. Intracellular recording solution (in mM): 130 KF, 20 KCl, 4 EGTA, 10 HEPES, 2 EDTA, 0.01 Escin, pH 7.2.
Cells were harvested for electrophysiological recording upon reaching appropriate confluence. Cells were first washed in DPBS (Hyclone, Cat #SH30028.03) and then 2 ml of Accutase (MP Biomedicals #1000449) was added at 28° C. until ˜90% of cells were suspended. F12 HAM's media+1 mM L-glutamine (Hyclone, SH30026.02) was then added to the flask to dilute the accutase. Cells were then triturated until a single cell suspension was achieved, a cell count was performed, and cells were centrifuged for 2 min. at 1,000 rpm. Media was then aspirated, and cells were resuspended in Earle's balanced salt solution to a concentration of 0.75×10^6 cells/ml and allowed to recover for 25 min at 10° C.
At the beginning of each assay, 20 μl of cell suspension was dispensed into each well of a multi-hole 384-well SyncroPatch chip by the onboard pipettor. Cell sealing was initiated, and seal enhancer solution was added to facilitate seal formation. Upon completion of sealing, cells were washed 3 times with extracellular recording solution and the assay voltage protocol was started. Human Kv7.2, Kv7.4 or Kv7.5/7.3 channels were evaluated using a voltage protocol in which cells were voltage-clamped at a holding potential of −60 mV. Potassium currents were continuously activated with a series of three voltage steps to −30 mV for 3 seconds, 40 mV for 1 second and −90 mV for 4 seconds with 12 seconds between successive voltage sweeps. Potassium currents were measured from the −90 mV repolarizing step. Baseline current was assessed for 3.5 minutes prior to the addition of 5.6 μM zinc pyrithione (1 μM for Kv7.4). Kv7.2, Kv7.4 or Kv7.5/7.3 current in the presence of zinc pyrithione was acquired over five minutes to allow channels to reach steady state activity prior to addition of test agents. Channel activity was monitored for three minutes preceding the addition of 30 μM ML-213 (3 minutes) to achieve maximum activation. 150 mM TEA with 10 μM XE-991 was applied for 2 minutes to measure the leak current during maximum inhibition of Kv7.2, Kv7.4 or Kv7.5/7.3 channels.
Data were collected on the SyncroPatch platform using PatchControl software (Nanion) and processed and analyzed using DataControl Software (Nanion). Percent activation was calculated from potassium current as follows: The average current for the 5 sweeps in the presence of zinc pyrithione immediately preceding test agent addition was taken as the ‘control’ data. Likewise, the average potassium current in the presence of test agents 5 sweeps immediately preceding addition of 30 μM ML-213 was determined for ‘drug’ data. The average potassium current 5 sweeps immediately prior to addition of 150 mM TEA+10 μM XE-991 was determined for ‘max activation’ data while average currents from 5 sweeps immediately following addition of TEA was determined for ‘max inhibition’ data. Percent activation for each of the 384-wells of a sealchip was calculated as ((‘drug’−‘max inhibition’)/(‘max activation’−‘max inhibition’))*100 with Pipeline Pilot (Accelrys). […]

Row | Structure (SMILES) | EC50 [nM] | Emax [%]
1 | O=C(NCc1ccnc(OC2CCOCC2)c1)N[C@@H]1C[C@H]1c1ccccc1 [Example 20, 1-[[2-(oxan-4-yloxy)pyridin-4-yl]methyl]-3-[(1R,2S)-2-phenylcyclopropyl]urea] | 5930 | 58
2 | C[C@H]1[C@H](NC(=O)NCc2ccnc(OC(F)F)c2)C1(F)F (racemic) [Example 42, 1-[[2-(difluoromethoxy)pyridin-4-yl]methyl]-3-[rac-(1R,3R)-2,2-difluoro-3-methylcyclopropyl]urea] | 1030 | 58
3 | O=C(NCc1ccnc(OC(F)(F)F)c1)N[C@@H]1C[C@H]1c1ccccc1 [Example 28, 1-[(1R,2S)-2-phenylcyclopropyl]-3-[[2-(trifluoromethoxy)pyridin-4-yl]methyl]urea] | 1360 | 62
4 | O=C(NCc1ccnc(Cl)c1)N[C@@H]1C[C@H]1C1CCCCC1 (racemic) [Example 17, 1-[(2-chloropyridin-4-yl)methyl]-3-[rac-(1R,2S)-2-cyclohexylcyclopropyl]urea] | 1760 | 61
5 | N#Cc1cccc(CNC(=O)N[C@@H]2C[C@H]2c2ccccc2)n1 [Example 18, 1-[(6-cyanopyridin-2-yl)methyl]-3-[(1R,2S)-2-phenylcyclopropyl]urea] | 3020 | 62
6 | O=C(NCc1ccnc(OC(F)F)c1)N[C@@H]1C[C@H]1C1CCCO1 (mixture of isomers) [Example 43, 1-[[2-(difluoromethoxy)pyridin-4-yl]methyl]-3-[rac-(1R,2R)-2-(oxolan-2-yl)cyclopropyl]urea] | 8010 | 61
7 | O=C(NCc1ccnc(OC(F)F)n1)N[C@@H]1C[C@H]1C(F)(F)F [Example 49, 1-[[2-(difluoromethoxy)pyrimidin-4-yl]methyl]-3-[(1R,2R)-2-(trifluoromethyl)cyclopropyl]urea] | 3830 | 42
8 | O=C(NCc1ccnc(-n2cccn2)c1)N[C@@H]1C[C@H]1c1ccccc1 [Example 13, 1-[(1R,2S)-2-phenylcyclopropyl]-3-[(2-pyrazol-1-ylpyridin-4-yl)methyl]urea] | 1340 | 74
9 | O=C(NCc1cccc(Cl)n1)N[C@@H]1C[C@H]1C1CCCCC1 (racemic) [Example 3, 1-[(6-chloropyridin-2-yl)methyl]-3-[rac-(1R,2S)-2-cyclohexylcyclopropyl]urea] | 1540 | 77
10 | COc1cc(CNC(=O)N[C@@H]2C[C@H]2c2ccccc2)ccn1 [Example 9, 1-[(2-methoxypyridin-4-yl)methyl]-3-[(1R,2S)-2-phenylcyclopropyl]urea] | 3410 | 78

More lines, in order of falling EC50, values ahead:

Row | EC50 [nM] | Emax [%] | Structure (SMILES)
11 | 1000 | 43 | O=C(NCc1cc(OC(F)F)ncn1)N[C@H]1C[C@@H]1C(F)(F)F [Example 52, 1-[[6-(difluoromethoxy)pyrimidin-4-yl]methyl]-3-[(1S,2S)-2-(trifluoromethyl)cyclopropyl]urea]
12 | 720 | 53 | O=C(NCc1ccnc(C(F)(F)F)c1)N[C@@H]1C[C@H]1c1ccccc1 [Example 22, 1-[(1R,2S)-2-phenylcyclopropyl]-3-[[2-(trifluoromethyl)pyridin-4-yl]methyl]urea]
13 | 660 | 64 | CC(C)Oc1cc(CNC(=O)N[C@@H]2C[C@H]2c2ccccc2)ccn1 [Example 6, 1-[(1R,2S)-2-phenylcyclopropyl]-3-[(2-propan-2-yloxypyridin-4-yl)methyl]urea]
14 | 620 | 47 | [2H]C([2H])(NC(=O)N[C@@H]1C[C@H]1C(F)(F)F)c1ccnc(OC(F)F)c1 (racemic) [Example 50, 1-[dideuterio-[2-(difluoromethoxy)pyridin-4-yl]methyl]-3-[rac-(1R,2R)-2-(trifluoromethyl)cyclopropyl]urea]
15 | 570 | 84 | O=C(NCc1ccnc(-n2cccn2)c1)N[C@@H]1C[C@H]1C1CCCCC1 (racemic) [Example 2, 1-[rac-(1R,2S)-2-cyclohexylcyclopropyl]-3-[(2-pyrazol-1-ylpyridin-4-yl)methyl]urea]
16 | 330 | 40 | CC(F)(F)[C@@H]1C[C@H]1NC(=O)NCc1ccnc(OC(F)F)c1 (racemic) [Example 44, 1-[[2-(difluoromethoxy)pyridin-4-yl]methyl]-3-[rac-(1R,2R)-2-(1,1-difluoroethyl)cyclopropyl]urea]
17 | 310 | 40 | C[C@H](NC(=O)N[C@@H]1C[C@H]1c1ccccc1)c1ccnc(-n2cnc(C(F)(F)F)c2)c1 [Example 33, 1-[(1R,2S)-2-phenylcyclopropyl]-3-[(1S)-1-[2-[4-(trifluoromethyl)imidazol-1-yl]pyridin-4-yl]ethyl]urea]
18 | 280 | 52 | O=C(NCc1cc(OCC(F)(F)F)ncn1)N[C@@H]1C[C@H]1C(F)(F)F (racemic) [Example 51, 1-[rac-(1R,2R)-2-(trifluoromethyl)cyclopropyl]-3-[[6-(2,2,2-trifluoroethoxy)pyrimidin-4-yl]methyl]urea]
19 | 200 | 66 | O=C(NCc1ccnc(OCC(F)F)c1)N[C@@H]1C[C@H]1c1ccccc1 [Example 35, 1-[[2-(2,2-difluoroethoxy)pyridin-4-yl]methyl]-3-[(1R,2S)-2-phenylcyclopropyl]urea]
20 | 120 | 69 | C[C@@]1(NC(=O)NCc2ccnc(OC(F)F)c2)C[C@H]1c1ccccc1 (racemic) [Example 36, 1-[[2-(difluoromethoxy)pyridin-4-yl]methyl]-3-[rac-(1R,2S)-1-methyl-2-phenylcyclopropyl]urea]
21 | 100 | 71 | O=C(NCc1ccnc(OC(F)F)c1)N[C@@H]1C[C@H]1c1ccccc1 [Example 7, 1-[[2-(difluoromethoxy)pyridin-4-yl]methyl]-3-[(1R,2S)-2-phenylcyclopropyl]urea]
22 | 70 | 71 | O=C(NCc1ccnc(OCC(F)(F)F)c1)N[C@@H]1C[C@H]1c1ccccc1 [Example 14, 1-[(1R,2S)-2-phenylcyclopropyl]-3-[[2-(2,2,2-trifluoroethoxy)pyridin-4-yl]methyl]urea]
23 | 70 | 78 | O=C(NCc1ccnc(-n2ccc(C(F)(F)F)n2)c1)N[C@@H]1C[C@H]1c1ccccc1 [Example 39, 1-[(1R,2S)-2-phenylcyclopropyl]-3-[[2-[3-(trifluoromethyl)pyrazol-1-yl]pyridin-4-yl]methyl]urea]
24 | 50 | 77 | C[C@]1(C(F)(F)F)C[C@@H]1NC(=O)NCc1ccnc(OC(F)F)c1 (racemic) [Example 47, 1-[[2-(difluoromethoxy)pyridin-4-yl]methyl]-3-[rac-(1R,2R)-2-methyl-2-(trifluoromethyl)cyclopropyl]urea]
